Experimental data from ChEMBL document CHEMBL5120829, “Discovery and structural optimization of potent epidermal growth factor receptor (EGFR) inhibitors against L858R/T790M/C797S resistance mutation for lung cancer treatment” (Eur J Med Chem, 2022).
Activity calls are given as the source filed them. The calls are words filed in the database; no cut-off is given here.

What was measured:
[1] = tested on: Epidermal growth factor receptor (Homo sapiens), P00533 [L858R,T790M,C797S]; assay: Inhibition of EGFR L858R/T790M/C797S mutant (unknown origin) at 1 uM relative to control
Chain of Epidermal growth factor receptor (Homo sapiens), P00533 [L858R,T790M,C797S] (P00533 whole entry T790M/C797S/L858R): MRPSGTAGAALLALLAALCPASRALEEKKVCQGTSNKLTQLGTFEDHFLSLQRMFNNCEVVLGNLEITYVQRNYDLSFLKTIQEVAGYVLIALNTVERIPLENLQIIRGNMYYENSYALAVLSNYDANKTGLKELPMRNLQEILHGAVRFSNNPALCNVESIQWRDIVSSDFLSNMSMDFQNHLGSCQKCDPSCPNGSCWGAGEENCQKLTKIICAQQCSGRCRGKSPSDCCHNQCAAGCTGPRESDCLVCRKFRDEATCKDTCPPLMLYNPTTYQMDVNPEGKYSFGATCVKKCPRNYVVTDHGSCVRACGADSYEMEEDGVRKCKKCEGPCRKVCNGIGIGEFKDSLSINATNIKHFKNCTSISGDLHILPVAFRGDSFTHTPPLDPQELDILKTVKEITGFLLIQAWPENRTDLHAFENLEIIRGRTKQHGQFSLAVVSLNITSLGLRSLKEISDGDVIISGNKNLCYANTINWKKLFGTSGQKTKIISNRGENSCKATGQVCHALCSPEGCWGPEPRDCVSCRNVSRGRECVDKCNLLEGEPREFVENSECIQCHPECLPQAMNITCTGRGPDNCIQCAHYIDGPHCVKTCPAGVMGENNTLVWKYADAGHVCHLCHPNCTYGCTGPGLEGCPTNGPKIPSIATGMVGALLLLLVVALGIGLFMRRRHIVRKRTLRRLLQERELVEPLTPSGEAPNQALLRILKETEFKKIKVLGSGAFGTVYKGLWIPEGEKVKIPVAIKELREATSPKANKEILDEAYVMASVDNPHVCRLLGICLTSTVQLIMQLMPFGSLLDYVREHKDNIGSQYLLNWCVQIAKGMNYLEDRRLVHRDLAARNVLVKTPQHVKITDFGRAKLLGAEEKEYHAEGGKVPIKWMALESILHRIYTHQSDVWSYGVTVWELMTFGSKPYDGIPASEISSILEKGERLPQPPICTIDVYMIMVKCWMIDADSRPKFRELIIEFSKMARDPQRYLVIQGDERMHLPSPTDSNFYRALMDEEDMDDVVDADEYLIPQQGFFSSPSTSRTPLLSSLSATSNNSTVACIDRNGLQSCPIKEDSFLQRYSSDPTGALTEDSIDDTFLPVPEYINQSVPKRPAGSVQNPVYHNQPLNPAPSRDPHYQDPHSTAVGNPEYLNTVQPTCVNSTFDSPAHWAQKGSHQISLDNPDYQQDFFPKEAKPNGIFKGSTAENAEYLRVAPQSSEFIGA

[2] = Clearance in overnight fasted Sprague-Dawley rat at 20 mg/kg, iv by HPLC analysis; assay type: ADME, organism-based; conditions: in vivo
PC-9 [3] = assay: Induction of apoptosis in human PC-9 cells expressing EGFR L858R/T790M/C797S mutant assessed as late apoptotic cells at 0.25 uM incubated for 24 hrs by annexin-V/propidium iodide staining-based flow cytometry analysis (reference value: 0.14 %); assay type: functional
[4] = Oral bioavailability in overnight fasted Sprague-Dawley rat at 20 mg/kg by HPLC analysis; assay type: ADME, organism-based; conditions: in vivo
[5] = Toxicity in BALB/c nude mouse xenografted with human PC-9 cells expressing EGFR L858R/T790M/C797S mutant assessed as body weight loss at 10 to 40 mg/kg, po measured every day for 18 days; assay type: organism-based; conditions: in vivo, 432 h, dose 10-40 mg/kg, time 18 day
[6] = Tmax in overnight fasted Sprague-Dawley rat at 20 mg/kg, iv by HPLC analysis; assay type: ADME, organism-based; conditions: in vivo
PC-9 [7] = assay: Antitumor activity against human PC-9 cells expressing EGFR L858R/T790M/C797S mutant xenografted in po dosed BALB/c nude mouse assessed as inhibition of tumor growth measured every other day for 18 days by digital vernier caliper analysis; assay type: functional, organism-based; conditions: dose 10-40 mg/kg, time 18.0 day, DDE = dose-dependent effect
PC-9 [8] = assay: Induction of apoptosis in human PC-9 cells expressing EGFR L858R/T790M/C797S mutant assessed as early apoptotic cells at 0.25 uM incubated for 24 hrs by annexin-V/propidium iodide staining-based flow cytometry analysis (reference value: 0.3 %); assay type: functional
[9] = AUC(0 to infinity) in overnight fasted Sprague-Dawley rat at 20 mg/kg, iv by HPLC analysis; assay type: ADME, organism-based; design: time infinity, dose 20 mg/kg, route iv; conditions: in vivo
[10] = MRT (0 to infinity) in overnight fasted Sprague-Dawley rat at 20 mg/kg, iv by HPLC analysis; assay type: ADME, organism-based; conditions: in vivo
PC-9 [11] = assay: Cell cycle arrest in human PC-9 cells expressing EGFR L858R/T790M/C797S mutant assessed as increase in accumulation of cells at G0/G1 phase at 0.01 to 1 uM incubated for 24 hrs by RNase/PI staining based flow cytometry analysis; assay type: functional; conditions: dose 0.01-1 µM
PC-9 [12] = assay: Induction of apoptosis in human PC-9 cells expressing EGFR L858R/T790M/C797S mutant assessed as dead cells at 0.01 uM incubated for 24 hrs by annexin-V/propidium iodide staining-based flow cytometry analysis (reference value: 0.43 %); assay type: functional
[13] = MRT (0 to infinity) in overnight fasted Sprague-Dawley rat at 20 mg/kg, po by HPLC analysis; assay type: ADME, organism-based; conditions: in vivo
[14] = molecular target: Signal transducer and activator of transcription 3 (Homo sapiens) (UniProt P40763); assay: Inhibition of STAT3 phosphorylation in human PC-9 cells expressing EGFR L858R/T790M/C797S mutant at 0.01 to 1 uM by Western blot analysis; assay type: cell-based; conditions: dose 0.01-1 µM
Chain of Signal transducer and activator of transcription 3 (Homo sapiens) (P40763 whole entry): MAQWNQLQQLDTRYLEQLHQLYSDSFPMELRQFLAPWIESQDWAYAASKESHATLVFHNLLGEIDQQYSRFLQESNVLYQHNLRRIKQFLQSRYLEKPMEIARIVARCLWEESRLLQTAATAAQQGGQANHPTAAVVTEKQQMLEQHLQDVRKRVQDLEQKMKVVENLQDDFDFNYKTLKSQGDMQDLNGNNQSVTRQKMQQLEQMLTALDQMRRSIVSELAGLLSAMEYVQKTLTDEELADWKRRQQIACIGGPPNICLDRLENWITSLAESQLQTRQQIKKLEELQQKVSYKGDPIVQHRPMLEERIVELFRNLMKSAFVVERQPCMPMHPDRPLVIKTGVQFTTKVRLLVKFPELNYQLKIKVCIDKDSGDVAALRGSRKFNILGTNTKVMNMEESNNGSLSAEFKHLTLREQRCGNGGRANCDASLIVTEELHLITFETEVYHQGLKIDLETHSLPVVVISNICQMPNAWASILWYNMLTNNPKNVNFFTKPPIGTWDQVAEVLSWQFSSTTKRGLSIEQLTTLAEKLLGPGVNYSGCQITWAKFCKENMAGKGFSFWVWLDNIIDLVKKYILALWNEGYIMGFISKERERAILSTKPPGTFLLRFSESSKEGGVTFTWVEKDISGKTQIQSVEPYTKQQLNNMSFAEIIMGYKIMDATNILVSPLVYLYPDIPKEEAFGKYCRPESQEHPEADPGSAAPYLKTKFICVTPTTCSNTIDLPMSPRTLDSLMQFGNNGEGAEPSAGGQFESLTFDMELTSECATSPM

[15] = Half life in overnight fasted Sprague-Dawley rat at 20 mg/kg, iv by HPLC analysis; assay type: ADME, organism-based; conditions: in vivo
PC-9 [16] = assay: Induction of apoptosis in human PC-9 cells expressing EGFR L858R/T790M/C797S mutant assessed as early apoptotic cells at 0.01 uM incubated for 24 hrs by annexin-V/propidium iodide staining-based flow cytometry analysis (reference value: 0.3 %); assay type: functional
A549 = assay: Antiproliferative activity against human A549 cells assessed as inhibition of cell growth incubated for 72 hrs by CCK-8 assay; assay type: functional, cell-based; conditions: A549, 72 h
PC-9 [17] = assay: Induction of apoptosis in human PC-9 cells expressing EGFR L858R/T790M/C797S mutant assessed as viable cells at 0.01 uM incubated for 24 hrs by annexin-V/propidium iodide staining-based flow cytometry analysis (reference value: 99.1 %); assay type: functional; conditions: read-out: Activity
[18] = tested on: Epidermal growth factor receptor (Homo sapiens), P00533 [L858R,T790M,C797S]; assay: Inhibition of EGFR phosphorylation in human PC-9 cells expressing EGFR L858R/T790M/C797S mutant at 0.01 to 1 uM by Western blot analysis; assay type: cell-based; conditions: dose 0.01-1 µM
[19] = Volume of distribution at steady state in overnight fasted Sprague-Dawley rat at 20 mg/kg, po by HPLC analysis; assay type: ADME, organism-based; conditions: in vivo
PC-9 [20] = assay: Antitumor activity against human PC-9 cells expressing EGFR L858R/T790M/C797S mutant xenografted in BALB/c nude mouse assessed as reduction in tumor weight at 10 to 40 mg/kg, po measured every day for 18 days by digital vernier caliper analysis; assay type: functional, organism-based; conditions: dose 10-40 mg/kg, time 18.0 day
[21] = Clearance in overnight fasted Sprague-Dawley rat at 20 mg/kg, po by HPLC analysis; assay type: ADME, organism-based; conditions: in vivo
PC-9 [22] = assay: Antiproliferative activity against human PC-9 cells expressing EGFR L858R/T790M/C797S mutant assessed as inhibition of cell growth incubated for 72 hrs by CCK-8 assay; assay type: functional, cell-based; conditions: PC-9, 72 h
[23] = Tmax in overnight fasted Sprague-Dawley rat at 20 mg/kg, po by HPLC analysis; assay type: ADME, organism-based; conditions: in vivo
PC-9 [24] = assay: Induction of apoptosis in human PC-9 cells expressing EGFR L858R/T790M/C797S mutant assessed as dead cells at 0.25 uM incubated for 24 hrs by annexin-V/propidium iodide staining-based flow cytometry analysis (reference value: 0.43 %); assay type: functional
PC-9 [25] = assay: Induction of apoptosis in human PC-9 cells expressing EGFR L858R/T790M/C797S mutant assessed as viable cells at 0.05 uM incubated for 24 hrs by annexin-V/propidium iodide staining-based flow cytometry analysis (reference value: 99.1 %); assay type: functional; conditions: read-out: Activity
[26] = Half life in overnight fasted Sprague-Dawley rat at 20 mg/kg, po by HPLC analysis; assay type: ADME, organism-based; conditions: in vivo
A-431 = assay: Antiproliferative activity against human A-431 cells assessed as inhibition of cell growth incubated for 72 hrs by CCK-8 assay; assay type: functional, cell-based; conditions: A-431, 72 h
[27] = tested on: Epidermal growth factor receptor (Homo sapiens), P00533 [L858R,T790M,C797S]; assay: Inhibition of EGFR L858R/T790M/C797S mutant (unknown origin) at 0.5 uM relative to control
[28] = molecular target: Epidermal growth factor receptor (Homo sapiens, UniProt P00533, C797S/L858R/T790M); assay: Inhibition of EGFR L858R/T790M/C797S mutant (unknown origin)
Chain of Epidermal growth factor receptor (P00533 25-1210 T790M/C797S/L858R limits assumed): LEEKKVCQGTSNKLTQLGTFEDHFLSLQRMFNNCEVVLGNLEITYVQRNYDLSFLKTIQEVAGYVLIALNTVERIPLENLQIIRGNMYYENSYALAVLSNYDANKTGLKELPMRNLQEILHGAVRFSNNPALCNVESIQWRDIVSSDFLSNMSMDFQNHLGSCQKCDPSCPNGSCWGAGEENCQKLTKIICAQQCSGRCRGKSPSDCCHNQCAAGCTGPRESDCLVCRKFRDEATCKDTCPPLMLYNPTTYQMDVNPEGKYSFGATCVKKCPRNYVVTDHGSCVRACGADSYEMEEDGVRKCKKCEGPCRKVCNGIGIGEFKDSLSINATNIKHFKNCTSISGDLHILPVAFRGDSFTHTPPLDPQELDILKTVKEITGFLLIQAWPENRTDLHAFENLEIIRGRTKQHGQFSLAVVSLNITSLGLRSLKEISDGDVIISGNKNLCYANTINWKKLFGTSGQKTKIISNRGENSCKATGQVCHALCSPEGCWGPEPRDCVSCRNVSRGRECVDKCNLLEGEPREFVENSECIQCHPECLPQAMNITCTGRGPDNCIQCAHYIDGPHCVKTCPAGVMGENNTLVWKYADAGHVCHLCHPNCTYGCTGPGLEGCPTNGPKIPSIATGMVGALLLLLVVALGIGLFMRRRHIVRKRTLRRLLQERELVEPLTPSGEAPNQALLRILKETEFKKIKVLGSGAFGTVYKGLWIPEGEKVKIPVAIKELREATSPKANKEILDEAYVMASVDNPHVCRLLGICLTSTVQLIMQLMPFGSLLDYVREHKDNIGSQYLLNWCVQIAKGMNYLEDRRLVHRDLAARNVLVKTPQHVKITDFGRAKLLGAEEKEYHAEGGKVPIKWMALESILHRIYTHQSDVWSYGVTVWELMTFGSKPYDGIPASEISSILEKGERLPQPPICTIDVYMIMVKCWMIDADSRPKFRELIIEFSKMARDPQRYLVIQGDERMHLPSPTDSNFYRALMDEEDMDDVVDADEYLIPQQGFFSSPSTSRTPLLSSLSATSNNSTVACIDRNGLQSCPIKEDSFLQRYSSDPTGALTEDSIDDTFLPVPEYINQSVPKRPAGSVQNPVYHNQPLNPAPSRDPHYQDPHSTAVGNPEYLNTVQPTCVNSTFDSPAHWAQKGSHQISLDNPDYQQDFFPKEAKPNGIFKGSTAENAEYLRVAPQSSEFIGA

PC-9 [29] = assay: Induction of apoptosis in human PC-9 cells expressing EGFR L858R/T790M/C797S mutant assessed as late apoptotic cells at 0.05 uM incubated for 24 hrs by annexin-V/propidium iodide staining-based flow cytometry analysis (reference value: 0.14 %); assay type: functional
PC-9 [30] = assay: Induction of apoptosis in human PC-9 cells expressing EGFR L858R/T790M/C797S mutant assessed as late apoptotic cells at 0.01 uM incubated for 24 hrs by annexin-V/propidium iodide staining-based flow cytometry analysis (reference value: 0.14 %); assay type: functional
PC-9 [31] = assay: Induction of apoptosis in human PC-9 cells expressing EGFR L858R/T790M/C797S mutant assessed as viable cells at 0.25 uM incubated for 24 hrs by annexin-V/propidium iodide staining-based flow cytometry analysis (reference value: 99.1 %); assay type: functional; conditions: Homo sapiens, PC-9, read-out: Activity
[32] = AUC(0 to infinity) in overnight fasted Sprague-Dawley rat at 20 mg/kg, po by HPLC analysis; assay type: ADME, organism-based; design: time infinity, dose 20 mg/kg, route po; conditions: in vivo
[33] = Cmax in overnight fasted Sprague-Dawley rat at 20 mg/kg, po by HPLC analysis; assay type: ADME, organism-based; design: dose 20 mg/kg, route po; conditions: in vivo
[34] = molecular target: Serine/threonine-protein kinase AKT (Homo sapiens) (UniProt P31751+Q9Y243+P31749); assay: Inhibition of AKT phosphorylation in human PC-9 cells expressing EGFR L858R/T790M/C797S mutant at 0.01 to 1 uM by Western blot analysis; assay type: cell-based; conditions: dose 0.01-1 µM
Chain of Serine/threonine-protein kinase AKT (Homo sapiens) (P31749 whole entry, looked up): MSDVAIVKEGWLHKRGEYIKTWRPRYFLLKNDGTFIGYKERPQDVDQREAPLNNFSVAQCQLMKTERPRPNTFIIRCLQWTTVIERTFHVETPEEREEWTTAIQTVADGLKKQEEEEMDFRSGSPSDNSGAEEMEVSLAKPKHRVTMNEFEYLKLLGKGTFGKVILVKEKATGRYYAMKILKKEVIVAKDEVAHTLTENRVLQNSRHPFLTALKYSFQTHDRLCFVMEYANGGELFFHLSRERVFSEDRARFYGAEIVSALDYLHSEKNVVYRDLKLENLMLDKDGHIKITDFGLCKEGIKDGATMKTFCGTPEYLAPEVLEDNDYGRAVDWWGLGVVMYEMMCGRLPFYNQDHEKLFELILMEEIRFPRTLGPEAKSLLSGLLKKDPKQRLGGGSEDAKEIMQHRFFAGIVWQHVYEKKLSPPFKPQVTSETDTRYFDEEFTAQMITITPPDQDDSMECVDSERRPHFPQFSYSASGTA
Chain of Serine/threonine-protein kinase AKT (Homo sapiens) (P31751 whole entry, looked up): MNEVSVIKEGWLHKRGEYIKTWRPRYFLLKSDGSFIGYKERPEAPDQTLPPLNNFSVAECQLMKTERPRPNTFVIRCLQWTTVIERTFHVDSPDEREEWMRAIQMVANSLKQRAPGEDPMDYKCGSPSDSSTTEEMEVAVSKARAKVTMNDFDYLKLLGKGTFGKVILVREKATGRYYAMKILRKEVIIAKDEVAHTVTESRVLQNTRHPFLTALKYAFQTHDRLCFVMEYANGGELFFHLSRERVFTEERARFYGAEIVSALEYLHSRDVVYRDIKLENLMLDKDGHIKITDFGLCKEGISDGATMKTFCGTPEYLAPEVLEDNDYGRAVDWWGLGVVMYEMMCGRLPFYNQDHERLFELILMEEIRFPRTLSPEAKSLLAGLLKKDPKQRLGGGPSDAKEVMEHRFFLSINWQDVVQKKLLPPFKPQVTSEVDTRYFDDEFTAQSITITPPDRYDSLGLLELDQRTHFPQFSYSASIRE
Chain of Serine/threonine-protein kinase AKT (Homo sapiens) (Q9Y243 whole entry, looked up): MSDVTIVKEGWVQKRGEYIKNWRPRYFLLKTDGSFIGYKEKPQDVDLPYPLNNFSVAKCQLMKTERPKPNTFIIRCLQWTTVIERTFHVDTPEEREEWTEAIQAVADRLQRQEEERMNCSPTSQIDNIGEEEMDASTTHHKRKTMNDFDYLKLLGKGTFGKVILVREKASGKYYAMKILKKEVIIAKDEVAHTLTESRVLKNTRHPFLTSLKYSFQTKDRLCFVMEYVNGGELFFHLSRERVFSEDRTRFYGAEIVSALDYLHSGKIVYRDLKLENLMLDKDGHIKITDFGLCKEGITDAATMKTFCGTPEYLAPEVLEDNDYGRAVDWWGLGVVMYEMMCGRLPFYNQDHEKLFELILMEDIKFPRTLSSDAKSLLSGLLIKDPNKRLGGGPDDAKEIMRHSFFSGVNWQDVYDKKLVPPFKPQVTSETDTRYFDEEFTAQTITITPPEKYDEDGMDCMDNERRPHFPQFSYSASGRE

[35] = Cmax in overnight fasted Sprague-Dawley rat at 20 mg/kg, iv by HPLC analysis; assay type: ADME, organism-based; design: dose 20 mg/kg, route iv; conditions: in vivo
PC-9 [36] = assay: Induction of apoptosis in human PC-9 cells expressing EGFR L858R/T790M/C797S mutant assessed as early apoptotic cells at 0.05 uM incubated for 24 hrs by annexin-V/propidium iodide staining-based flow cytometry analysis (reference value: 0.3 %); assay type: functional
PC-9 [37] = assay: Induction of apoptosis in human PC-9 cells expressing EGFR L858R/T790M/C797S mutant assessed as dead cells at 0.05 uM incubated for 24 hrs by annexin-V/propidium iodide staining-based flow cytometry analysis (reference value: 0.43 %); assay type: functional
[38] = Volume of distribution at steady state in overnight fasted Sprague-Dawley rat at 20 mg/kg, iv by HPLC analysis; assay type: ADME, organism-based; conditions: in vivo, read-out: Vdss

CN1CCN(c2ccc(Nc3ncc4cc(CNc5ccccc5)n(C5CCCC5)c4n3)cc2)CC1
inhibition [1]: 90% | clearance [2]: 21.2 mL/min/kg | Activity (PC-9 [3]): 10.7% | bioavailability [4]: 66% | Activity [5]: Non-Toxic | Tmax [6]: 4.98 min | Activity (PC-9 [7]): Dde | Activity (PC-9 [8]): 6.8% | AUC(0-inf) [9]: 15900 ng·h/mL | MRT inf [10]: 16.4 h | Activity (PC-9 [11]): Active | Activity (PC-9 [12]): 1.14% | MRT inf [13]: 16.8 h | inhibition [14]: Active | half-life [15]: 8.92 h | Activity (PC-9 [16]): 1.21% | IC50 (A549): 1030 nM | viability at 0.01 µM (PC-9 [17]): 93.1% | inhibition [18]: Active | Vdss [19]: 28.101 L/kg | Activity (PC-9 [20]): Active | CL/F [21]: 35.9 mL/min/kg | IC50 (PC-9 [22]): 13 nM | Tmax [23]: 6 h | Activity (PC-9 [24]): 7.03% | viability at 0.05 µM (PC-9 [25]): 88.2% | half-life [26]: 11.2 h | IC50 (A-431): 2970 nM | inhibition [27]: 83% | IC50 [28]: 17 nM | Activity (PC-9 [29]): 5.21% | Activity (PC-9 [30]): 4.53% | viability at 0.25 µM (PC-9 [31]): 75.4% | AUC(0-inf) [32]: 10500 ng·h/mL | Cmax [33]: 770 ng/mL | inhibition [34]: Active | Cmax [35]: 6840 ng/mL | Activity (PC-9 [36]): 5.43% | Activity (PC-9 [37]): 1.11% | Vd [38]: 16 L/kg
